Tests used:
[1] = biological target: T1, Sodium- and chloride-dependent glycine transporter 2 (Homo sapiens, UniProt Q9Y345); experiment: Inhibition of human GlyT2
T1 sequence (Q9Y345 whole entry): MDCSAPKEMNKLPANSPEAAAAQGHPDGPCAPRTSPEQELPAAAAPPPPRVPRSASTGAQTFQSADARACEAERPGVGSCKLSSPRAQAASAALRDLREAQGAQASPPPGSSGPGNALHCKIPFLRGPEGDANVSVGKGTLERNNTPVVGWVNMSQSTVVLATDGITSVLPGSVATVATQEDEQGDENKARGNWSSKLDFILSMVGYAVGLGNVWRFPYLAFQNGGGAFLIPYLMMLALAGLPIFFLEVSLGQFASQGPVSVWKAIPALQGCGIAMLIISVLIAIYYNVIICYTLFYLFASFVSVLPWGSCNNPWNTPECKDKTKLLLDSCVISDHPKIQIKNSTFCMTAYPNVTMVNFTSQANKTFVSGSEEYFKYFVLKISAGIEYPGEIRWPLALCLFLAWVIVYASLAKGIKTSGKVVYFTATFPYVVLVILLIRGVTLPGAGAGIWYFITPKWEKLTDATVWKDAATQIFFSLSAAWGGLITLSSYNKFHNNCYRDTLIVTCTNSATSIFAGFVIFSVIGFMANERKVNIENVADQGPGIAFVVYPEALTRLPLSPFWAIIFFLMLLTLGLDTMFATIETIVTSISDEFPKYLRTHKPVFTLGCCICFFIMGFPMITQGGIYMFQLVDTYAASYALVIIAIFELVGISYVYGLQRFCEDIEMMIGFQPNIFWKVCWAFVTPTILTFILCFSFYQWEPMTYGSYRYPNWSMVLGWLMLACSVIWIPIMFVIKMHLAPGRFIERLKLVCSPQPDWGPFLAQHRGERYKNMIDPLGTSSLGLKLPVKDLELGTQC

Caco-2 = experiment: Ratio of permeability from basolateral to apical over apical to basolateral side of Caco-2 cell expressing mouse p-glycoprotein; assay type: ADME, cell-based; conditions: human

Row | IC50 [1] [µM] | Ratio (Caco-2) | Compound
1 | > 30 | 8.9 | CCCS(=O)(=O)N1CCC(CNC(=O)c2ccccc2Cl)(C(=O)N2CCOCC2)CC1
2 | > 30 | 8.9 | CCCS(=O)(=O)N1CCC(CNC(=O)c2c(F)ccc(Cl)c2F)(C(=O)N2CCOCC2)CC1
3 | > 30 | 8.9 | CCCS(=O)(=O)N1CCC(CNC(=O)c2ccc(F)cc2Cl)(C(=O)N2CCOCC2)CC1
4 | > 30 | 8.9 | CCCS(=O)(=O)N1CCC(CNC(=O)c2cc(F)c(Cl)cc2Cl)(C(=O)N2CCOCC2)CC1
5 | > 30 | 8.9 | CCCS(=O)(=O)N1CCC(CNC(=O)c2c(F)cccc2Cl)(C(=O)N2CCOCC2)CC1
6 | > 30 | 11.4 | CCCS(=O)(=O)N1CCC(CNC(=O)c2ccc(Cl)cc2Cl)(C(=O)N2CCOCC2)CC1
